In the NIST ThermoML archive (doi:10.1021/acs.jced.5b00662):
± gives the expanded uncertainty stated by the source.

Test: xn = mol fraction of the nth substance listed
Settings: 100 kPa, Liquid; for speed of sound: Sing-around technique in a fixed-path interferometer; for mass density: Vibrating tube method

CCOCCOCCO [3,6-dioxa-1-octanol] + O
Settings | mass density, x1 = 0.9674 [kg/m3] | mass density, x1 = 0.974 [kg/m3] | mass density, x1 = 0.9826 [kg/m3] | mass density, x1 = 0.9887 [kg/m3] | mass density, x1 = 0.9899 [kg/m3] | speed of sound, x1 = 0.9674 [m/s] | speed of sound, x1 = 0.974 [m/s] | speed of sound, x1 = 0.9826 [m/s] | speed of sound, x1 = 0.9887 [m/s] | speed of sound, x1 = 0.9899 [m/s]
283.15 K | 997.734 ± 2.1 | 997.587 ± 2.1 | 997.387 ± 2.1 | 997.339 ± 2.1 | 997.227 ± 2.1 | 1430.8 ± 2.3 | 1430.3 ± 2.3 | 1429.4 ± 2.3 | 1429.6 ± 2.3 | 1429.6 ± 2.3
288.15 K | 993.31 ± 2.1 | 993.16 ± 2.1 | 992.963 ± 2.1 | 992.908 ± 2.1 | 992.793 ± 2.1 | 1412.8 ± 2.3 | 1412.2 ± 2.3 | 1411.4 ± 2.3 | 1411.4 ± 2.3 | 1411.2 ± 2.3
293.15 K | 988.877 ± 2.1 | 988.725 ± 2.1 | 988.528 ± 2.1 | 988.475 ± 2.1 | 988.357 ± 2.1 | 1394.9 ± 2.3 | 1394.3 ± 2.3 | 1393.5 ± 2.3 | 1393.6 ± 2.3 | 1393.3 ± 2.3
298.15 K | 984.434 ± 2.1 | 984.285 ± 2.1 | 984.088 ± 2.1 | 984.028 ± 2.1 | 983.913 ± 2.1 | 1377.3 ± 2.3 | 1376.5 ± 2.3 | 1375.7 ± 2.3 | 1375.7 ± 2.3 | 1375.4 ± 2.3
303.15 K | 979.981 ± 2.1 | 979.829 ± 2.1 | 979.636 ± 2.1 | 979.572 ± 2.1 | 979.459 ± 2.1 | 1359.6 ± 2.3 | 1358.8 ± 2.3 | 1358 ± 2.3 | 1357.9 ± 2.3 | 1357.5 ± 2.3
308.15 K | 975.514 ± 2.1 | 975.363 ± 2.1 | 975.164 ± 2.1 | 975.102 ± 2.1 | 974.991 ± 2.1 | 1342 ± 2.3 | 1341.3 ± 2.3 | 1340.5 ± 2.3 | 1340.1 ± 2.3 | 1340 ± 2.3
313.15 K | 971.029 ± 2.1 | 970.88 ± 2.1 | 970.684 ± 2.1 | 970.62 ± 2.1 | 970.511 ± 2.1 | 1324.4 ± 2.3 | 1323.9 ± 2.3 | 1323.1 ± 2.3 | 1322.7 ± 2.3 | 1322.5 ± 2.3
323.15 K | 962.022 ± 2 | 961.873 ± 2.1 | 961.673 ± 2.1 | 961.608 ± 2.1 | 961.499 ± 2.1 | 1289.8 ± 2.3 | 1289.3 ± 2.3 | 1288.5 ± 2.3 | 1287.9 ± 2.3 | 1287.8 ± 2.3
333.15 K | 952.945 ± 2 | 952.794 ± 2 | 952.591 ± 2.1 | 952.534 ± 2.1 | 952.422 ± 2.1 | 1255.6 ± 2.3 | 1255 ± 2.3 | 1254.2 ± 2.3 | 1253.7 ± 2.3 | 1253.5 ± 2.3
343.15 K | 943.775 ± 2 | 943.629 ± 2 | 943.425 ± 2.1 | 943.381 ± 2.1 | 943.264 ± 2.1 | 1221.7 ± 2.3 | 1221.1 ± 2.3 | 1220.3 ± 2.3 | 1220 ± 2.3 | 1219.7 ± 2.3

OCCOCCO [diethylene glycol] + O
Settings | mass density, x1 = 0.907 [kg/m3] | mass density, x1 = 0.9589 [kg/m3] | mass density, x1 = 0.9698 [kg/m3] | mass density, x1 = 0.99 [kg/m3] | mass density, x1 = 0.9901 [kg/m3] | speed of sound, x1 = 0.907 [m/s] | speed of sound, x1 = 0.9589 [m/s] | speed of sound, x1 = 0.9698 [m/s] | speed of sound, x1 = 0.99 [m/s] | speed of sound, x1 = 0.9901 [m/s]
283.15 K | 1123.13 ± 2 | 1123.27 ± 2 | 1123.27 ± 2 | 1123.33 ± 2 | 1123.33 ± 2 | 1620.3 ± 1.5 | 1617.8 ± 1.6 | 1617.4 ± 1.6 | 1616.4 ± 1.6 | 1616.5 ± 1.6
288.15 K | 1119.58 ± 2 | 1119.71 ± 2 | 1119.72 ± 2 | 1119.77 ± 2 | 1119.77 ± 2 | 1608 ± 1.5 | 1605.5 ± 1.6 | 1605.2 ± 1.6 | 1604.1 ± 1.6 | 1604.2 ± 1.6
293.15 K | 1116.02 ± 2 | 1116.15 ± 2 | 1116.16 ± 2 | 1116.21 ± 2 | 1116.21 ± 2 | 1595.9 ± 1.5 | 1593.3 ± 1.6 | 1593 ± 1.6 | 1591.9 ± 1.6 | 1592 ± 1.6
298.15 K | 1112.45 ± 2 | 1112.59 ± 2 | 1112.59 ± 2 | 1112.65 ± 2 | 1112.65 ± 2 | 1583.8 ± 1.5 | 1581 ± 1.6 | 1580.8 ± 1.6 | 1579.6 ± 1.6 | 1579.8 ± 1.6
303.15 K | 1108.88 ± 2 | 1109.02 ± 2 | 1109.03 ± 2 | 1109.08 ± 2 | 1109.08 ± 2 | 1571.7 ± 1.5 | 1569 ± 1.6 | 1568.6 ± 1.6 | 1567.5 ± 1.6 | 1567.4 ± 1.6
308.15 K | 1105.3 ± 2 | 1105.43 ± 2 | 1105.44 ± 2 | 1105.5 ± 2 | 1105.5 ± 2 | 1559.6 ± 1.5 | 1557 ± 1.6 | 1556.6 ± 1.6 | 1555.4 ± 1.6 | 1555.4 ± 1.6
313.15 K | 1101.69 ± 2 | 1101.83 ± 2 | 1101.84 ± 2 | 1101.9 ± 2 | 1101.9 ± 2 | 1547.5 ± 1.5 | 1545 ± 1.6 | 1544.6 ± 1.6 | 1543.4 ± 1.6 | 1543.3 ± 1.6
323.15 K | 1094.45 ± 2 | 1094.6 ± 2 | 1094.6 ± 2 | 1094.67 ± 2 | 1094.67 ± 2 | 1523.4 ± 1.5 | 1520.9 ± 1.5 | 1520.5 ± 1.6 | 1519.3 ± 1.6 | 1519.2 ± 1.6
333.15 K | 1087.12 ± 2 | 1087.28 ± 2 | 1087.29 ± 2 | 1087.36 ± 2 | 1087.36 ± 2 | 1499 ± 1.5 | 1496.6 ± 1.5 | 1496.2 ± 1.6 | 1495.1 ± 1.6 | 1494.9 ± 1.6
343.15 K | 1079.71 ± 2 | 1079.88 ± 2 | 1079.9 ± 2 | 1079.97 ± 2 | 1079.97 ± 2 | 1474.6 ± 1.5 | 1472.2 ± 1.5 | 1471.8 ± 1.5 | 1470.8 ± 1.6 | 1470.5 ± 1.6

CCOCCOCCOCC [diethylene glycol diethyl ether] + O
Settings | mass density [kg/m3] | speed of sound [m/s]
283.15 K, x1 = 0.97 | 918.572 ± 2.1 | 1305.3 ± 2.3
283.15 K, x1 = 0.9742 | 918.371 ± 2.1 | 1304.9 ± 2.3
283.15 K, x1 = 0.9778 | 918.271 ± 2.1 | 1303.9 ± 2.3
283.15 K, x1 = 0.9836 | 917.783 ± 2.1 | 1303.6 ± 2.3
283.15 K, x1 = 0.9875 | 917.643 ± 2.1 | 1304.4 ± 2.3
283.15 K, x1 = 0.9911 | 917.567 ± 2.1 | 1304.1 ± 2.3
288.15 K, x1 = 0.97 | 913.742 ± 2.1 | 1284.9 ± 2.3
288.15 K, x1 = 0.9742 | 913.543 ± 2.1 | 1284.6 ± 2.3
288.15 K, x1 = 0.9778 | 913.443 ± 2.1 | 1283.6 ± 2.3
288.15 K, x1 = 0.9836 | 912.955 ± 2.1 | 1283.3 ± 2.3
288.15 K, x1 = 0.9875 | 912.82 ± 2.1 | 1284 ± 2.3
288.15 K, x1 = 0.9911 | 912.74 ± 2.1 | 1284 ± 2.3
293.15 K, x1 = 0.97 | 908.91 ± 2.1 | 1264.8 ± 2.3
293.15 K, x1 = 0.9742 | 908.705 ± 2.1 | 1264.4 ± 2.3
293.15 K, x1 = 0.9778 | 908.61 ± 2.1 | 1263.6 ± 2.3
293.15 K, x1 = 0.9836 | 908.126 ± 2.1 | 1263.2 ± 2.3
293.15 K, x1 = 0.9875 | 907.993 ± 2.1 | 1263.9 ± 2.3
293.15 K, x1 = 0.9911 | 907.914 ± 2.1 | 1263.8 ± 2.3
298.15 K, x1 = 0.97 | 904.074 ± 2.1 | 1244.9 ± 2.3
298.15 K, x1 = 0.9742 | 903.873 ± 2.1 | 1244.6 ± 2.3
298.15 K, x1 = 0.9778 | 903.775 ± 2.1 | 1243.7 ± 2.3
298.15 K, x1 = 0.9836 | 903.3 ± 2.1 | 1243.4 ± 2.3
298.15 K, x1 = 0.9875 | 903.166 ± 2.1 | 1244.1 ± 2.3
298.15 K, x1 = 0.9911 | 903.09 ± 2.1 | 1244 ± 2.3
303.15 K, x1 = 0.97 | 899.235 ± 2.1 | 1225.2 ± 2.3
303.15 K, x1 = 0.9742 | 899.035 ± 2.1 | 1224.9 ± 2.3
303.15 K, x1 = 0.9778 | 898.937 ± 2.1 | 1224 ± 2.3
303.15 K, x1 = 0.9836 | 898.467 ± 2.1 | 1223.6 ± 2.3
303.15 K, x1 = 0.9875 | 898.334 ± 2.1 | 1224.4 ± 2.3
303.15 K, x1 = 0.9911 | 898.256 ± 2.1 | 1224.2 ± 2.3
308.15 K, x1 = 0.97 | 894.389 ± 2.1 | 1205.6 ± 2.3
308.15 K, x1 = 0.9742 | 894.189 ± 2.1 | 1205.3 ± 2.3
308.15 K, x1 = 0.9778 | 894.092 ± 2.1 | 1204.6 ± 2.3
308.15 K, x1 = 0.9836 | 893.628 ± 2.1 | 1204.1 ± 2.3
308.15 K, x1 = 0.9875 | 893.496 ± 2.1 | 1204.7 ± 2.3
308.15 K, x1 = 0.9911 | 893.419 ± 2.1 | 1204.6 ± 2.3
313.15 K, x1 = 0.97 | 889.537 ± 2.1 | 1186.4 ± 2.3
313.15 K, x1 = 0.9742 | 889.339 ± 2.1 | 1186 ± 2.3
313.15 K, x1 = 0.9778 | 889.241 ± 2.1 | 1185.3 ± 2.3
313.15 K, x1 = 0.9836 | 888.783 ± 2.1 | 1184.7 ± 2.3
313.15 K, x1 = 0.9875 | 888.652 ± 2.1 | 1184.7 ± 2.3
313.15 K, x1 = 0.9911 | 888.577 ± 2.1 | 1185.3 ± 2.3
323.15 K, x1 = 0.97 | 879.812 ± 2.1 | 1148.2 ± 2.3
323.15 K, x1 = 0.9742 | 879.619 ± 2.1 | 1147.7 ± 2.3
323.15 K, x1 = 0.9778 | 879.518 ± 2.1 | 1147.3 ± 2.3
323.15 K, x1 = 0.9836 | 879.074 ± 2.1 | 1146.7 ± 2.3
323.15 K, x1 = 0.9875 | 878.945 ± 2.1 | 1146.3 ± 2.3
323.15 K, x1 = 0.9911 | 878.873 ± 2.1 | 1146.2 ± 2.3
333.15 K, x1 = 0.97 | 870.056 ± 2.1 | 1111 ± 2.3
333.15 K, x1 = 0.9742 | 869.867 ± 2.1 | 1110.4 ± 2.3
333.15 K, x1 = 0.9778 | 869.76 ± 2.1 | 1110 ± 2.3
333.15 K, x1 = 0.9836 | 869.332 ± 2.1 | 1109.5 ± 2.3
333.15 K, x1 = 0.9875 | 869.203 ± 2.1 | 1109.1 ± 2.3
333.15 K, x1 = 0.9911 | 869.134 ± 2.1 | 1108.9 ± 2.3
343.15 K, x1 = 0.97 | 860.264 ± 2.1 | 1074.5 ± 2.3
343.15 K, x1 = 0.9742 | 860.076 ± 2.1 | 1074 ± 2.3
343.15 K, x1 = 0.9778 | 859.966 ± 2.1 | 1073.7 ± 2.3
343.15 K, x1 = 0.9836 | 859.55 ± 2.1 | 1073.1 ± 2.3
343.15 K, x1 = 0.9875 | 859.411 ± 2.1 | 1072.6 ± 2.3
343.15 K, x1 = 0.9911 | 859.346 ± 2.1 | 1072.7 ± 2.3
